According to ChEMBL document CHEMBL3091276, “Design, synthesis and evaluation of 6-(4-((substituted-1H-1,2,3-triazol-4-yl)methyl)piperazin-1-yl)phenanthridine analogues as antimycobacterial agents” (Bioorg Med Chem Lett, 2013):
Converted amounts (≈) assume the structure as drawn.

What was measured:
[1] = test system: RAW264.7; test: Cytotoxicity against mouse RAW264.7 cells by MTT assay; format: cell-based
[2] = Selectivity index, ratio of IC50 for mouse RAW264.7 cells to MIC99 for Mycobacterium tuberculosis H37Rv; format: toxicity; details: read-out: Selectivity Index
[3] = Cytotoxicity against mouse RAW264.7 cells at 50 ug/ml by MTT assay relative to control; format: cell-based; details: read-out: INH
[4] = test system: Mycobacterium tuberculosis; test: Antimycobacterial activity in Mycobacterium tuberculosis H37Rv after 5 days by Alamar Blue assay; format: functional; details: 120 h

## O=S(=O)(c1ccccc1)n1cc(CN2CCN(c3nc4ccccc4c4ccccc34)CC2)nn1
[1]
  IC50: > 425 µg/mL
[2]
  selectivity ratio: > 125
[3]
  cytotoxicity at 50 ug/ml: 5.82%
[4]
  MIC99: 1.56 µg/mL (≈ 3.22 µM)

## c1ccc(Cn2cc(CN3CCN(c4nc5ccccc5c5ccccc45)CC3)nn2)cc1
[4]
  MIC99: 50 µg/mL (≈ 115 µM)

## CCc1ccc(-n2cc(CN3CCN(c4nc5ccccc5c5ccccc45)CC3)nn2)cc1
[4]
  MIC99: 50 µg/mL (≈ 111 µM)

## Clc1ccc(-n2cc(CN3CCN(c4nc5ccccc5c5ccccc45)CC3)nn2)cc1
[4]
  MIC99: 25 µg/mL (≈ 54.9 µM)

## O=[N+]([O-])c1cccc(-n2cc(CN3CCN(c4nc5ccccc5c5ccccc45)CC3)nn2)c1
[4]
  MIC99: 6.25 µg/mL (≈ 13.4 µM)

## Cc1ccc(S(=O)(=O)n2cc(CN3CCN(c4nc5ccccc5c5ccccc45)CC3)nn2)cc1
[4]
  MIC99: 12.5 µg/mL (≈ 25.1 µM)

## Fc1ccc(-n2cc(CN3CCN(c4nc5ccccc5c5ccccc45)CC3)nn2)cc1F
[4]
  MIC99: 25 µg/mL (≈ 54.8 µM)

## Brc1ccccc1-n1cc(CN2CCN(c3nc4ccccc4c4ccccc34)CC2)nn1
[4]
  MIC99: 50 µg/mL (≈ 100 µM)

## Brc1ccc(-n2cc(CN3CCN(c4nc5ccccc5c5ccccc45)CC3)nn2)cc1
[4]
  MIC99: 12.5 µg/mL (≈ 25 µM)

## Fc1ccc(-n2cc(CN3CCN(c4nc5ccccc5c5ccccc45)CC3)nn2)cc1Cl
[4]
  MIC99: 50 µg/mL (≈ 106 µM)

## Clc1cccc(-n2cc(CN3CCN(c4nc5ccccc5c5ccccc45)CC3)nn2)c1
[1]
  IC50: > 150 µg/mL
[2]
  selectivity ratio: > 20
[3]
  cytotoxicity at 50 ug/ml: 12.6%
[4]
  MIC99: 3.12 µg/mL (≈ 6.87 µM)

## NNC(=O)c1ccncc1 [ISONIAZID]
[4]
  MIC99: 0.36 µg/mL (≈ 2.63 µM)

## COc1cccc(-n2cc(CN3CCN(c4nc5ccccc5c5ccccc45)CC3)nn2)c1
[4]
  MIC99: 50 µg/mL (≈ 111 µM)

## FC(F)(F)c1cccc(-n2cc(CN3CCN(c4nc5ccccc5c5ccccc45)CC3)nn2)c1
[4]
  MIC99: 12.5 µg/mL (≈ 25.6 µM)

## c1ccc2c(c1)nc(N1CCN(Cc3cn(-c4ccc5c(c4)OCO5)nn3)CC1)c1ccccc12
[4]
  MIC99: 50 µg/mL (≈ 108 µM)

## COc1ccc(-n2cc(CN3CCN(c4nc5ccccc5c5ccccc45)CC3)nn2)cc1
[1]
  IC50: > 125 µg/mL
[2]
  selectivity ratio: > 15
[3]
  cytotoxicity at 50 ug/ml: 19.2%
[4]
  MIC99: 3.12 µg/mL (≈ 6.94 µM)

## Fc1ccc(-n2cc(CN3CCN(c4nc5ccccc5c5ccccc45)CC3)nn2)cc1
[4]
  MIC99: 25 µg/mL (≈ 57 µM)

## CO[C@H]1/C=C/O[C@@]2(C)Oc3c(C)c(O)c4c(O)c(c(/C=N/N5CCN(C)CC5)c(O)c4c3C2=O)NC(=O)/C(C)=C\C=C\[C@H](C)[C@H](O)[C@@H](C)[C@@H](O)[C@@H](C)[C@H](OC(C)=O)[C@@H]1C [RIFAMPIN]
[4]
  MIC99: 0.02 µg/mL (≈ 0.0243 µM)

## Clc1ccc(-n2cc(CN3CCN(c4nc5ccccc5c5ccccc45)CC3)nn2)cc1Cl
[4]
  MIC99: 50 µg/mL (≈ 102 µM)

## Cc1ccc(-n2cc(CN3CCN(c4nc5ccccc5c5ccccc45)CC3)nn2)c(C)c1
[4]
  MIC99: 12.5 µg/mL (≈ 27.9 µM)

## Clc1ccccc1-n1cc(CN2CCN(c3nc4ccccc4c4ccccc34)CC2)nn1
[4]
  MIC99: 12.5 µg/mL (≈ 27.5 µM)
